Source: patent publication US20250127907A1, “PARP INHIBITORS” (Stablix, Inc., priority 2023, published 2025)
Where two headings read alike, the source gives them in different places.

Columns and labels:
[1] = biological target: T1, PARP1 (Homo sapiens, UniProt P09874); assay: PARP1-enzyme assay (NAD/NADH-Glo biochemical assay); conditions: recombinant PARP1, NAD+ consumption
Protocol: The PARP enzyme catalyzes the transfer of ADP-Ribose from NAD+ onto PAR chains/histone substrates. The catalytic cycle is monitored indirectly with the NAD/NADH-Glo Assay kit from Promega. […] NAD+ consumed is determined by comparison to the no enzyme control.
• Recombinant PARP1 • NAD+/NAHD-Glow assay Kit • Activated DNA, 10 μg/mL • NAD+(Nicotinamide Adenine Dinucleotide), 500 nM • Protein substrate for PARP1: Core Histone from chicken, 10 μg/mL
(§1) The letter codes for the PARP1-enzyme assay include: A (<1 nM), B (>1-10 nM), C (>10-100 nM), D (>100-1000 nM), E (>1000 nM), and “-” is not tested. The letter codes for the PARP trapping assay, and parylation assay include: A (<10 nM), B (>10-100 nM), C (>100-1000 nM), […], E (>10000 nM), and “-” is not tested.
Target sequence in this assay (P09874 whole entry, species assumed): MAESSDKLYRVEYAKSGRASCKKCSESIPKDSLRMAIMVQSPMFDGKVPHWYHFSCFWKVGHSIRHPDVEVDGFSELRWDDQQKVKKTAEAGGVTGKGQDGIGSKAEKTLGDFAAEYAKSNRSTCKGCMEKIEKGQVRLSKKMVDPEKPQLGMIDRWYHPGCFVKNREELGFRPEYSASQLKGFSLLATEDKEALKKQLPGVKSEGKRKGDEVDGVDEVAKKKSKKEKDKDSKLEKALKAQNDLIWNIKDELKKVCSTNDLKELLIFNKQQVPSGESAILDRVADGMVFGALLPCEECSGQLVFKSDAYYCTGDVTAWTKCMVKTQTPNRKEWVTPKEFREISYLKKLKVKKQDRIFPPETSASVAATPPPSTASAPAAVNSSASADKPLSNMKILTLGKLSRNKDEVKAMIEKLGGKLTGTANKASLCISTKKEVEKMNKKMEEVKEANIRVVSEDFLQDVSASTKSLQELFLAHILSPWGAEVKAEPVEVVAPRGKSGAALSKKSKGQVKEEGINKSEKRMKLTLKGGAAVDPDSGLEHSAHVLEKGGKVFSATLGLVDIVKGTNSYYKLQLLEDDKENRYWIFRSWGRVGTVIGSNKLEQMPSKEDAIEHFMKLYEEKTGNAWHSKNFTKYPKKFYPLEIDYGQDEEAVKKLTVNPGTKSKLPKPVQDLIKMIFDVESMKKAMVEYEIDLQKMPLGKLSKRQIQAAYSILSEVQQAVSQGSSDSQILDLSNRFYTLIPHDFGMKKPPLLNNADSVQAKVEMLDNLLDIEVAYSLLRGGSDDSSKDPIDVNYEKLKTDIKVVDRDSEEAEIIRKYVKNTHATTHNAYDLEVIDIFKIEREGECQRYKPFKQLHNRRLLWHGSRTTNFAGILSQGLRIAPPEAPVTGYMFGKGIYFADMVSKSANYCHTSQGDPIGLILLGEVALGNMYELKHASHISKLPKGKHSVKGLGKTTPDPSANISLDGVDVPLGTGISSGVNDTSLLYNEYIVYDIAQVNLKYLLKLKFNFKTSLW

[2] = biological target: T1, PARP1; assay: PARP trapping assay in U2OS cells; type: cell-based; set-up: endogenous in cells; host or cells: U2OS; conditions: U2OS cells, MMS, 4 hrs; read-out: PARP Trapping (U2OS)
Protocol: U2OS cells are seeded at 15,000 cells/well in 90 ul medium and incubated in the TC incubator for overnight.
Next day, test compounds are prepared in a source plate along with addition of DNA damage reagent MMS simultaneously and 10 ul of the diluted mixture is added to the cell plate and incubated for 4 hrs under T/C conditions.
After 4 hrs, following aspiration and washing, add 100 ul of cold cytoskeleton removal buffer (0.5% Triton X-100) and incubated for 10 min. At the end of incubation, slowly the buffer is removed, and cells are fixed with ice cold MeOH for 15 min at −20C. Followed by wash steps, cells are blocked with 1×PBS/3% BSA/0.05% Tween for 1 h at room temperature.
Cells are stained with anti PARP1 antibody (abeam ab227244, 1:1000), in 1×PBS/1% BSA overnight at 4C.
Wash and add DAPI, scan cells in Celigo.
Data Analysis: DAPI staining is used to segment nuclei and AF488 fluorescence intensity per nucleus is measured.
as §1
Target sequence in this assay (P09874 whole entry): as the sequence (P09874 whole entry, species assumed) above

[3] = system: A2780 cells; assay: Cell proliferation assay (A2780); type: cell-based; conditions: 7 days
Protocol: (§2) Cells are counted, diluted to desired density and 40 μL of cell suspension is added into each 384-well tissue-culture treated plates. Plates are incubated in Tissue Culture incubator at 37° C./5% C02 overnight.
(§3) Next day, 40 nl test compounds that are prepared from source plates are transferred to the seeded cells from overnight. Plates are incubated at 37° C./5% C02 for a total of 7 days. After 7-day incubation, plates are equilibrated to room temperature and 30 ul of Cell Counting-Lite is added to each well for a 30 min incubation followed by reading on EnVision.
(§4) The letter codes for the cell proliferation assay in A2780, HCC1806, and MDA-MB-436 cells include: A (<10 nM), B (>10-100 nM), C (>100-1000 nM), D (>1000-10000 nM), E (>10000 nM), and “-” is not tested.

[4] = system: MDA-MB-436 cells; assay: Cell proliferation assay (MDA-MB-436); type: cell-based; conditions: 7 days
Protocol: as §2, §3, §4

[5] = system: Poly/Mono-ADP Ribose in U2OS cells; assay: PAR in cell western assay (parylation) in U2OS cells; type: cell-based; conditions: read-out: Parylation (U2OS)
Protocol: U2OS cells are seeded at 2667 cells per well in 24 ul medium into poly-D lysine-coated 384 well plate and incubated in the TC incubator for O/N
The next day, test comps are diluted in a source plate and 6 μL of the diluted comp is added to the cell plate; mixed well and incubated for 6 hrs. DNA damage is induced with 2 mM H2O2 for 10 min. After discarding the medium, cells are fixed in ice cold Methanol at for 20 min at −20C. After a wash step at room temperature, cells are permeabilized with 0.05% NP-40 in PBS for 10 min, followed by wash steps. Cells are blocked with 1% BSA, at room temperature for 1 hr. Cells are stained with anti mono/polyADP ribose antibody (E6F6A, Cell signaling, 1:5000) in 1×PBS/1% BSA/0.05% Tween o/n at 4C.
Next Day, cells are washed and incubated with anti-Rabbit 800CV (Licor antibody, 1:500) and CellTag 700 (Licor, 1:800) in 1×PBS/1% BSA/0.05% Tween for 1 h. After washing, plates are scanned using LICOR and are quantified.
Parylation inhibition is reported as % control inhibition.
as §1

[6] = system: HCC1806 cells; assay: Cell proliferation assay (HCC1806); type: cell-based; conditions: 7 days
Protocol: as §2, §3, §4

[7] = Homo sapiens, U2OS cells, 6 hrs, 2 mM H2O2

Row | SMILES | IC50 [1] [nM] | IC50 [2] [nM] | IC50 ([3]; Homo sapiens, 168 h) [nM] | IC50 ([4]; Homo sapiens, 168 h) [nM] | IC50 [5, 7] [nM] | IC50 [3] [nM] | IC50 [4] [nM] | IC50 [6] [nM] | IC50 ([5]; U2OS cells, 6 hrs, 2 mM H2O2) [nM] | IC50 ([6]; Homo sapiens, 168 h) [nM] | IC50 ([5]; Homo sapiens, U2OS, 6 h) [nM]
1 | CCOc1cc(OC)ccc1COCC(=O)N1CCCC(c2cccc(C(=O)N[C@@H](C(=O)N3CCN(CC4CCN(CC(=O)N5CCN(C(=O)c6cc(Cc7n[nH]c(=O)c8ccccc78)ccc6F)CC5)CC4)CC3)C3CCCCC3)c2)C1 (some centres unmarked) [Compound I-354] | < 1 | 10 to 100 | 10 to 100 | 10 to 100 | 100 to 1000 | – | – | – | – | – | –
2 | CCc1cccc(-c2cnc(C(=O)N3CCC(CN4CCN(CC(=O)N5CCN(C(=O)c6cc(Cc7n[nH]c(=O)c8ccccc78)ccc6F)CC5)CC4)CC3)c(OC(F)(F)F)c2)c1 [Compound I-420] | < 1 | 10 to 100 | 100 to 1000 | < 10 | 100 to 1000 | – | – | – | – | – | –
3 | O=C(N[C@@H](C(=O)N1CCN(CC2CCN(CC(=O)N3CCN(C(=O)c4cc(Cc5n[nH]c(=O)c6ccccc56)ccc4F)CC3)CC2)CC1)C1CCCCC1)c1cccc([C@@H]2CCCN(C(=O)CNC3CC3)C2)c1 [Compound I-365] | < 1 | 100 to 1000 | 1000 to 10000 | 10 to 100 | 10 to 100 | – | – | – | – | – | –
4 | CC(C)(C)OC(=O)N[C@@H](C(=O)NC12CCC(CN3CCC(C(=O)N4CCN(C(=O)c5cc(Cc6n[nH]c(=O)c7ccccc67)ccc5F)CC4)CC3)(CC1)OC2)C1CCCCC1 [Compound I-993] | – | 10 to 100 | – | – | – | 10 to 100 | < 10 | 10 to 100 | 10 to 100 | – | –
5 | CC(C)(F)C(=O)N1CCCC(c2cccc(C(=O)N[C@@H](C(=O)N3CCN(CC4CCN(CC(=O)N5CCN(C(=O)c6cc(Cc7n[nH]c(=O)c8ccccc78)ccc6F)CC5)CC4)CC3)C3CCCCC3)c2)C1 (some centres unmarked) [Compound I-528] | – | 100 to 1000 | 10 to 100 | < 10 | 10 to 100 | – | – | – | – | 100 to 1000 | –
6 | O=C(CN1CCN(CC2CCN(C(=O)c3c(F)cc(-c4cnccn4)cc3F)CC2)CC1)N1CCN(C(=O)c2cc(Cc3n[nH]c(=O)c4ccccc34)ccc2F)CC1 [Compound I-739] | – | 10 to 100 | 100 to 1000 | < 10 | < 10 | – | – | – | – | 100 to 1000 | –
7 | CC(C)(C)OC(=O)Nc1cc(-c2cccc(C3COC3)c2)cnc1C(=O)NCCOCCNCC(=O)N1CCN(C(=O)c2cc(Cc3n[nH]c(=O)c4ccccc34)ccc2F)CC1 [Compound I-803] | – | 100 to 1000 | 10 to 100 | < 10 | 10 to 100 | – | – | – | – | 100 to 1000 | –
8 | CCc1cccc(-c2cnc(C(=O)NC34CCC(CN5CCN(CC(=O)N6CCN(C(=O)c7cc(Cc8n[nH]c(=O)c9ccccc89)ccc7F)CC6)CC5)(CC3)OC4)c(NC(=O)OC(C)(C)C)c2)c1 [Compound I-800] | – | 10 to 100 | 100 to 1000 | < 10 | 100 to 1000 | – | – | – | – | 100 to 1000 | –
9 | CCc1cccc(-c2cnc(C(=O)NCCOCCNCC(=O)N3CCN(C(=O)c4cc(Cc5n[nH]c(=O)c6ccccc56)ccc4F)CC3)c(C)c2)c1 [Compound I-489] | – | 100 to 1000 | 10 to 100 | < 10 | 10 to 100 | – | – | – | – | 100 to 1000 | –
10 | CC1(OC2CCN(CC(=O)N3CCN(C(=O)c4cc(Cc5n[nH]c(=O)c6ccccc56)ccc4F)CC3)CC2)CCN(C(=O)[C@H](NC(=O)c2cccc(C3CCCN(C(=O)C4(C)CC4)C3)c2F)C2CCCCC2)CC1 (some centres unmarked) [Compound I-893] | – | 10 to 100 | 100 to 1000 | 10 to 100 | 100 to 1000 | – | – | – | – | 100 to 1000 | –
11 | O=C(CN1CCC(OC2CCN(C(=O)c3c(F)cc(-c4cccnn4)cc3F)CC2)CC1)N1CCN(C(=O)c2cc(Cc3n[nH]c(=O)c4ccccc34)ccc2F)CC1 [Compound I-771] | – | 10 to 100 | 100 to 1000 | < 10 | < 10 | – | – | – | – | 100 to 1000 | –
12 | O=C(CN1CCN(CC2CCN(C(=O)c3c(F)cc(-c4ccncn4)cc3F)CC2)CC1)N1CCN(C(=O)c2cc(Cc3n[nH]c(=O)c4ccccc34)ccc2F)CC1 [Compound I-768] | – | 10 to 100 | 100 to 1000 | < 10 | 10 to 100 | – | – | – | – | 100 to 1000 | –
13 | CCc1cccc(-c2cc(F)c(C(=O)N3CC4CCC3CC4CN3CCN(CC(=O)N4CCN(C(=O)c5cc(Cc6n[nH]c(=O)c7ccccc67)ccc5F)CC4)CC3)c(F)c2)c1 (centres unmarked) [Compound I-690] | – | 10 to 100 | 100 to 1000 | < 10 | 10 to 100 | – | – | – | – | 10 to 100 | –
14 | CCc1cccc(-c2cnc(C(=O)NC34CCC(CN5CCN(CC(=O)N6CCN(C(=O)c7cc(Cc8n[nH]c(=O)c9ccccc89)ccc7F)CC6)CC5)(CC3)OC4)c(N)c2)c1 [Compound I-470] | – | 10 to 100 | 10 to 100 | < 10 | 100 to 1000 | – | – | – | – | 10 to 100 | –
15 | CC(C)(C)OC(=O)N[C@@H](C(=O)N1CC[C@H](OC2CCN(CC(=O)N3CCN(C(=O)c4cc(Cc5n[nH]c(=O)c6ccccc56)ccc4F)CC3)CC2)C1)C1CCCCC1 [Compound I-875] | – | 100 to 1000 | 100 to 1000 | < 10 | 100 to 1000 | – | – | – | – | 100 to 1000 | –
16 | CCc1cccc(-c2cc(F)c(C(=O)N3CCC(OC4CCN(CC(=O)N5CCN(C(=O)c6cc(Cc7n[nH]c(=O)c8ccccc78)ccc6F)CC5)CC4)CC3)c(F)c2)c1 [Compound I-590] | – | 10 to 100 | < 10 | < 10 | < 10 | – | – | – | – | 10 to 100 | –
17 | O=C(N[C@@H](C(=O)N1CCN(CC(=O)N2CCN(C(=O)c3cc(Cc4n[nH]c(=O)c5ccccc45)ccc3F)CC2)CC1)C1CCCCC1)c1cccc(C2CCCN(C(=O)CNCc3ccc(F)cc3F)C2)c1 (some centres unmarked) [Compound I-963] | < 1 | – | 100 to 1000 | 100 to 1000 | – | – | – | – | – | – | 100 to 1000
18 | O=C(CN1CCC(OC2CCN(C(=O)c3c(F)cc(-c4ccnnc4)cc3F)CC2)CC1)N1CCN(C(=O)c2cc(Cc3n[nH]c(=O)c4ccccc34)ccc2F)CC1 [Compound I-772] | – | < 10 | 100 to 1000 | < 10 | 10 to 100 | – | – | – | – | 100 to 1000 | –
19 | CCc1cccc(-c2cnc(C(=O)NCCOCCNCC(=O)N3CCN(C(=O)c4cc(Cc5n[nH]c(=O)c6ccccc56)ccc4F)CC3)c(N)c2)c1 [Compound I-402] | – | 100 to 1000 | 10 to 100 | < 10 | 10 to 100 | – | – | – | – | 10 to 100 | –
20 | CC(C)(C)OC(=O)N1CCCC(c2cccc(Oc3cnnc(N4CCC(OC5CCN(CC(=O)N6CCN(C(=O)c7cc(Cc8n[nH]c(=O)c9ccccc89)ccc7F)CC6)CC5)CC4)c3)c2)C1 (centres unmarked) [Compound I-870] | – | 10 to 100 | 10 to 100 | < 10 | 10 to 100 | – | – | – | – | 10 to 100 | –
21 | CCc1cccc(-c2cnc(C(=O)NC34CCC(CN5CCN(CC(=O)N6CCN(C(=O)c7cc(Cc8n[nH]c(=O)c9ccccc89)ccc7F)CC6)CC5)(CC3)OC4)c(NC(C)=O)c2)c1 [Compound I-469] | – | 10 to 100 | 10 to 100 | < 10 | 10 to 100 | – | – | – | – | 10 to 100 | –
